≈ marks a conversion by molar mass, not a printed value.

For this data set the following is noted: buffer; pH 7.4; 200.0 µM.
Broadly, the kinetic solubility is the concentration staying in solution when a stock, usually in DMSO, is diluted into the medium. The compound `CCOc1cccc(C(=O)NC(c2ccccc2)C(C)C)c1` (centres undefined) displayed a solubility (kinetic) of 5.1 µg/mL (≈ 17.1 µM). The result for `CCc1cccc(CC)c1-n1c(SCC(=O)N2CCc3ccccc32)nc(O)cc1=O` reads 60 µg/mL (≈ 138 µM). For `CN1C(=O)C2(OCCCO2)c2ccccc21`, the kinetic solubility is 31.6 µg/mL (≈ 144 µM). As for `CCc1ccc(OCCNC(=O)c2ccco2)cc1`, the figure is over 38.9 µg/mL; as for `O=C(O)C1CC=CCC1C(=O)Nc1cccc([N+](=O)[O-])c1` (centres undefined), over 43.5 µg/mL. As to `Cl.ClCCN1C2=NCCCN2c2ccccc21`, the kinetic solubility is over 40.8 µg/mL. `O=C(CN1CCN(c2ccc(F)cc2)CC1)c1ccc(O)cc1O` registered a kinetic solubility of 12.7 µg/mL (≈ 38.4 µM). In the case of `O=C(O)CSc1cn(Cc2ccccc2)c2ccccc12`, the solubility (kinetic) was over 44.6 µg/mL. The result for `COC(=O)C1=C(C)NC(C)=C(C(=O)OC)C1c1ccco1` reads 21.9 µg/mL (≈ 75.2 µM); that for `CN1[C@@H](CC(=O)c2ccccc2)CCC[C@H]1C[C@H](O)c1ccccc1.Cl`, over 56.1 µg/mL; that for `COc1cccc(NC(=S)N(CCN2CCCCC2)Cc2ccco2)c1`, 47.3 µg/mL (≈ 127 µM). The result for `Cc1nc2ccccc2n1CCOc1ccc(F)cc1` reads 40.1 µg/mL (≈ 148 µM); that for `COc1ccccc1OCCNC(=O)C(c1ccccc1)c1ccccc1`, 2.2 µg/mL (≈ 6.09 µM); that for `Cc1ccc(CSCC(=O)NCCc2ccccc2)cc1`, 40.9 µg/mL (≈ 137 µM). `O=C(Cc1ccccc1[N+](=O)[O-])OCN1C(=O)c2ccccc2C1=O` gave a solubility (kinetic) of 13.7 µg/mL (≈ 40.3 µM).

With `O=c1c2ccccc2nc(/C=C/c2ccccc2O)n1-c1ccccc1O`, the solubility (kinetic) amounted to 30.8 µg/mL (≈ 86.4 µM). Compared with the last compound, the solubility kinetic is about 2.2-fold higher. Compound `COC(=O)c1cc(OC)c(OC)cc1NC(=O)Nc1ccccc1F` displayed a kinetic solubility of 2.4 µg/mL (≈ 6.89 µM). Against the preceding compound, the solubility kinetic is about 13-fold lower. As for `COc1ccc2cc(C(C)C(=O)N3CCC(C)CC3)ccc2c1` (centres undefined), the figure is 18.8 µg/mL (≈ 60.4 µM); as for `O=C(O)CC1(CC(=O)Nc2cccc(C(=O)O)c2)CCCC1`, over 45.8 µg/mL; as for `COc1ccc(S(=O)(=O)n2cnc(C)c2)cc1`, over 37.8 µg/mL.

In turn, `COCCNC(=O)c1ccc2c(c1)ncn2-c1cccc(C)c1` registered a solubility (kinetic) of over 46.4 µg/mL. Compound `c1ccc(NCc2ccccn2)cc1` gave a kinetic solubility of 24.6 µg/mL (≈ 134 µM). The result for `C=CCN=C1SC(C)(C)C(=O)N1S(=O)(=O)c1ccc(C)cc1` reads 45.6 µg/mL (≈ 135 µM).

In the case of `Cc1ccc2nc(-c3ccncc3)cc(C(=O)NCc3ccccc3F)c2c1`, the kinetic solubility was found to be 2.5 µg/mL (≈ 6.73 µM). The result for `CC(NC(=O)c1ccc(F)cc1F)C1CC2CCC1C2` (centres undefined) reads 12.7 µg/mL (≈ 45.5 µM); that for `CN1CCN(c2nc3ccccc3nc2NS(=O)(=O)c2ccc(Br)cc2)CC1`, over 69.4 µg/mL. Compound `CCCCc1c(O)nc(SCC(=O)N2CCCCCC2)[nH]c1=O` yielded a solubility (kinetic) of 48.9 µg/mL (≈ 144 µM).

`Cc1cc(C)c2oc(=O)cc(CN3CCC(C)CC3)c2c1` had a kinetic solubility of 4.1 µg/mL (≈ 14.4 µM). `O=C(Cc1cccs1)Nc1ccc(F)c(F)c1` displayed a solubility (kinetic) of 20.9 µg/mL (≈ 82.5 µM). For the compound `Cn1c(C(O)c2ccc(Br)cc2)nc(Cl)c1Cl` (centres undefined), the solubility (kinetic) was 13.9 µg/mL (≈ 41.4 µM). As to `COc1ccc(CNc2nccs2)cc1`, the solubility (kinetic) is 19.5 µg/mL (≈ 88.5 µM). The result for `COc1cccc(CNC(=O)CCNC(=O)c2ccco2)c1` reads over 45.3 µg/mL; that for `O=C(NC(=S)Nc1ccccc1[N+](=O)[O-])c1ccccc1`, 4.1 µg/mL (≈ 13.6 µM). Compound `CN(C)Cc1cc2ccccc2c2c1COC2` gave a solubility (kinetic) of 31.5 µg/mL (≈ 139 µM).

With `NC(=O)c1ccccc1NC(=O)c1cccc(C(=O)Nc2ccccc2C(N)=O)n1`, the solubility (kinetic) worked out at 5.3 µg/mL (≈ 13.1 µM). As for `O=C1/C(=C\c2ccsc2)N2CCC1CC2`, the figure is 21.3 µg/mL (≈ 97.1 µM). The result for `COc1cc(C(=O)Oc2cccnc2)cc(OC)c1OC.Cl` reads over 48.9 µg/mL. Turning to `CON(C)S(=O)(=O)c1cccc(C(=O)N(CC(=O)Nc2ccccc2C(F)(F)F)Cc2ccco2)c1`, the solubility (kinetic) was 50.2 µg/mL (≈ 95.5 µM). As for `CC(C)(C)C(=O)Nc1cc2c3c(c1)CCN3C(=O)CC2`, the figure is over 40.9 µg/mL. The result for `NS(=O)(=O)c1cc(C(=O)N2CCNC(=O)C2)ccc1Cl` reads over 47.7 µg/mL.

Compound `Cc1ccc(C(=O)NC(=S)N(C)C2CCCCC2)cc1` registered a solubility (kinetic) of 9.9 µg/mL (≈ 34.1 µM). As for `O=C1CN(S(=O)(=O)c2cccc(Br)c2)CCN1`, the figure is over 47.9 µg/mL. As for `CC(CN1C(C)CCCC1C)OC(=O)c1cccc(F)c1.Cl` (centres undefined), the figure is over 49.5 µg/mL; as for `COc1ccc(S(=O)(=O)NCc2c(-c3ccccc3)noc2C)c(OC)c1`, 4.4 µg/mL (≈ 11.3 µM). In turn, `Cc1cc(C2(O)C(=O)Nc3ccccc32)ccc1F` (centres undefined) registered a kinetic solubility of over 38.6 µg/mL. `Cc1c(C(=O)OCC(=O)NCC2CCCO2)oc2ccccc12` (centres undefined) returned a kinetic solubility of over 47.6 µg/mL.

Take `Cc1ccc(C(=O)NCCc2ccccc2)cc1`: the kinetic solubility was found to be 27.4 µg/mL (≈ 114 µM). In turn, `O=C(O)c1cc(O)ccc1NC(=O)C1CCCO1` (centres undefined) came in with a kinetic solubility of 30.1 µg/mL (≈ 120 µM). In turn, `CCOC(=O)C1CCCN(C(=O)CSc2nc(C)cc(C)n2)C1` (centres undefined) displayed a kinetic solubility of 41.5 µg/mL (≈ 123 µM). This solubility kinetic and that of the compound before are within 1.5-fold of each other. The result for `O=C(CN1C(=O)S/C(=C\c2cc(Cl)c(O)c(Cl)c2)C1=O)Nc1ccccc1` reads 3.6 µg/mL (≈ 8.51 µM); that for `CCOC(=O)N1CCN(Cc2cc(Cl)c3cccnc3c2O)CC1`, over 52.5 µg/mL. As for `CC(CC(=O)NCCc1ccc(S(N)(=O)=O)cc1)c1ccccc1` (centres undefined), the figure is over 52 µg/mL; as for `CCCCC(=O)Nc1cc(-c2nc3ncccc3o2)ccc1C`, 4 µg/mL (≈ 12.9 µM); as for `O=C(Nc1ccc(NC(=O)c2ccccc2Cl)nc1)c1ccco1`, 10.2 µg/mL (≈ 29.8 µM).

`O=C(CSc1nc2ccccc2[nH]1)NCc1ccccc1` came in with a solubility (kinetic) of 33.7 µg/mL (≈ 113 µM).

`Cc1cc(C)c(NC(N)=S)c(C)c1`: the kinetic solubility was over 29.1 µg/mL. The result for `Cc1nc(C)c(C(=O)OCC(=O)NCc2ccccc2Cl)s1` reads 26.4 µg/mL (≈ 77.9 µM); that for `CCOC(=O)c1c(/N=C/C2C(=O)NC(=O)NC2=O)sc2c1CCC2`, 5.4 µg/mL (≈ 15.5 µM). In turn, `O/N=C/c1ccc2ccccc2n1` had a kinetic solubility of over 25.8 µg/mL.

Turning to `O=C(Nc1ccc2c(c1)OCCO2)c1cccnc1Oc1ccc(Cl)cc1`, the kinetic solubility was 5.5 µg/mL (≈ 14.4 µM). `Cc1cccc(N2C(=O)CC(Sc3nccc(C)n3)C2=O)c1` (centres undefined): the kinetic solubility is over 47 µg/mL. As for `Cc1cc(C)nc(SCc2ccc(Cl)cc2)n1`, the figure is 0.6 µg/mL (≈ 2.27 µM); as for `Cc1cccnc1NC(=O)c1ccc2c(c1)NC(=O)C(C)S2` (centres undefined), over 47 µg/mL; as for `NS(=O)(=O)c1ccc(CCNC(=O)c2ccco2)cc1`, over 44.1 µg/mL. The result for `CC1Cn2c(nc3sc4c(c3c2=O)CC(C)(C)OC4)N1CCO` (centres undefined) reads over 50.3 µg/mL; that for `COC(=O)c1cc(C(=O)NCc2ccc3c(c2)OCO3)cc([N+](=O)[O-])c1`, 2.6 µg/mL (≈ 7.26 µM).

`CN(C(=O)C(C)(C)C)C1c2c(ccc3ccccc23)OCC1CO` (centres undefined) returned a kinetic solubility of 6.6 µg/mL (≈ 20.2 µM). As for `Cc1cc(C)n2nc(SCC(=O)N3CCCC3)nc2n1`, the figure is over 43.7 µg/mL; as for `CCc1cc(=O)oc2cc(OCC(=O)N3CCC(C(N)=O)CC3)ccc12`, over 53.8 µg/mL; as for `CNC(=S)NC(CC(=O)OC)c1ccc2c(c1)OCO2` (centres undefined), 41.8 µg/mL (≈ 141 µM).

In turn, `CSc1cccc(NC(=S)Nc2cc(C)ccc2C)c1` had a solubility (kinetic) of 22.5 µg/mL (≈ 74.4 µM).

For `Cc1[nH]c2ccccc2c1-c1csc(N)n1`, the solubility (kinetic) was 28.1 µg/mL (≈ 123 µM). For `CC(=O)c1ccc(/C=C/c2nc3ccccc3n2C)o1`, the solubility (kinetic) is over 39.9 µg/mL. As for `COc1ccc(Nc2nc3ccccc3n2C)cc1`, the figure is 36.5 µg/mL (≈ 144 µM); as for `COc1ccc(-c2csc3nc[nH]c(=O)c23)cc1OC`, 39.4 µg/mL (≈ 137 µM); as for `Cc1ccc(S(=O)(=O)N2CC(=O)NC(=O)C2)cc1`, over 40.2 µg/mL. As for `O=C(CSc1nc(O)c(Cc2ccccc2)c(=O)[nH]1)N1CCOCC1`, the figure is 40.2 µg/mL (≈ 111 µM); as for `O=C(O)c1cc2[nH]c3c(c2cc1Cl)CCCC3`, over 37.5 µg/mL. Consider `CCOc1ccc(N=Cc2ccc3ccccc3c2)cc1`, for which the kinetic solubility turned out to be 1.5 µg/mL (≈ 5.45 µM). As for `NC(=O)COC(=O)c1cccnc1Nc1ccccc1F`, the figure is 36.1 µg/mL (≈ 125 µM); as for `Cc1noc(C)c1COc1ccc(C(=O)N2CCCC(C(N)=O)C2)cc1` (centres undefined), over 53.6 µg/mL. `Cc1ccc(NC(=O)C2CCN(c3nc(C)cc(C)n3)CC2)cc1` showed a solubility (kinetic) of 2.4 µg/mL (≈ 7.4 µM). The result for `CCCCC#Cc1cncc(C(=O)NN)c1` reads over 32.6 µg/mL; that for `O=C(N1CCCCC1)C1(c2ccccc2)CCCCC1`, 3.6 µg/mL (≈ 13.3 µM). As for `N#Cc1cc(Cl)c(NCC2CCCO2)cc1C#N` (centres undefined), the solubility (kinetic) was found to be 18.2 µg/mL (≈ 69.5 µM). The result for `Cc1ccnc(SC2CC(=O)N(c3ccc(Br)cc3)C2=O)n1` (centres undefined) reads 44.1 µg/mL (≈ 117 µM); that for `COC(=O)C1=C(C)NC(=O)NC1c1ccc(-c2ccc(Cl)cc2)o1` (centres undefined), 4.8 µg/mL (≈ 13.8 µM). The result for `CNC(=O)O/N=C(\N)Cc1csc2ccc(Cl)cc12` reads 44.1 µg/mL (≈ 148 µM); that for `COc1cccc(CNC(=O)CNC(=O)c2cccs2)c1`, over 45.7 µg/mL; that for `Cc1ccccc1CN(c1ccc(C(=O)N2CCN(C)CC2)cc1)S(C)(=O)=O`, over 60.2 µg/mL.

Take `O=C1C2=C(CCCC2)C(=O)N1CNc1ccccc1`: the kinetic solubility came out at 33 µg/mL (≈ 129 µM). As for `O=C(c1ccccc1)c1ccccc1NC(=O)C1CCCN1Cc1ccccc1` (centres undefined), the figure is 2.6 µg/mL (≈ 6.76 µM); as for `COc1ccc(OC)c(NC(=O)CCCC(=O)NC2CCCCC2)c1`, over 52.3 µg/mL; as for `CC(C(=O)Nc1ccccc1)N1C(=O)c2ccccc2C1=O` (centres undefined), over 44.1 µg/mL. Regarding `CC(=O)Nc1ccc(S(=O)(=O)N2CC(=O)NC(=O)C2)cc1`, the solubility (kinetic) was over 46.7 µg/mL. `O=C(c1cc2ccccc2o1)N1CCOCC1` came in with a kinetic solubility of over 34.7 µg/mL. Compound `COc1ccccc1NC(=O)c1cc(=O)[nH]c2ccccc12` came in with a solubility (kinetic) of 29.7 µg/mL (≈ 101 µM). `COc1ccc(C(C)=O)cc1CN1CC=C(c2ccccc2)CC1` had a kinetic solubility of 28.8 µg/mL (≈ 89.6 µM). As for `O=C(NCCCNC(=O)c1ccco1)c1ccc(Cl)c(Cl)c1`, the figure is 44.2 µg/mL (≈ 130 µM). As for `Cc1cc(C)c(C)c(S(=O)(=O)N2CCC(C(=O)OCC(=O)NC3CCS(=O)(=O)C3)CC2)c1C` (centres undefined), the figure is over 75.1 µg/mL; as for `Cc1ccc2c(c1)C(=O)C(=O)N2CCCOc1ccccc1C`, 4.9 µg/mL (≈ 15.8 µM). The result for `O=C(O)c1ccc(Nc2nc(-c3cccnc3)cs2)cc1` reads over 44.6 µg/mL; that for `O=C(O)C(=O)O.O=[N+]([O-])c1ccccc1CNCCc1c[nH]c2ccccc12`, 41.8 µg/mL; that for `O=C(CN1CCCc2ccccc21)NCCc1ccc(F)cc1`, over 46.9 µg/mL.

The values above are taken from PubChem BioAssay AID1996.
